The values that follow come from US20060142279A1 (priority 2004, published 2006).

Where two headings read alike, the source gives them in different places.

For data set [1], the system named is dormant Mycobacterium tuberculosis (H37RV). As to the kind of experiment: Wayne dormancy model, CFU assay. The conditions noted are these: for reduction of the dormant bacteria (CFU compared to untreated control): drug added after 14 days, cultures collected after 22 days.
The subject of data set [2] is dormant M. bovis BCG, expressing the luciferase gene on plasmid pSMT1. The format is cell-based, Mycobacterium bovis. Particulars: 7 days of anaerobiosis, then 5 days in drug free medium.
The subject of data set [3] is dormant Mycobacterium bovis BCG. Type of data set: cell-based.

Turning to `COc1nc2ccc(Br)cc2cc1C(c1ccccc1)C(O)(CCn1cncn1)c1cccc2ccccc12` (stereo not drawn) [Compound 172], the “reduction of the dormant bacteria (CFU compared to untreated control)” value (shortened to “reduction of the dormant bacteria”) was 0.29 log10 in data set [1] (1 μg/ml) and 0.98 log10 in data set [1] (10 μg/ml).
As for `COc1nc2ccc(Br)cc2cc1C(c1ccccc1)C(O)(CCN(C)C)c1ccc2c(c1)OCO2` (stereo not drawn) [Compound 75], the “reduction of the dormant bacteria” value in data set [1] (1 μg/ml) came out at 0.87 log10; in data set [1] (10 μg/ml) it was 1.14 log10.
Consider `NNC(=O)c1ccncc1` [Isoniazid, reference compound], for which the “effect on dormant bacteria (Luciferase counts), in words” value in data set [2] (10 μg/ml) is listed as “no effect”. In data set [1] (10 μg/ml), the “effect on dormant bacteria, in words” value was “did not have any effect”.
Take `Cc1ncc([N+](=O)[O-])n1CCO` [metronidazole, reference compound]: in data set [2] (10 μg/ml), the “reduction in bacterial survival as compared to untreated control (Luciferase counts, RLU)” value turned out to be 2 log10. In addition, in data set [1] (100 μg/ml, added at start), the “effect on dormant bacteria, in words” value is “good efficacy”.
In the case of `COc1nc2ccc(Br)cc2cc1[C@@H](c1ccccc1)[C@@](O)(CCN(C)C)c1cccc2ccccc12` [Compound 12, (αS, βR)-6-bromo-α-[2-(dimethylamino)ethyl]-2-methoxy-α-1-naphthalenyl-β-phenyl-3-quinolineethanol], the results for the “killing of dormant bacteria as compared to untreated control (Luciferase counts, RLU)” value in data set [2] (0.1 μg/ml) and in data set [2] (1 μg/ml) were “about 0.5 log10” and ~2 log10, respectively. Moreover, in data set [2] (10 μg/ml), the “reduction in bacterial survival as compared to untreated control (Luciferase counts, RLU)” value is “approximately 4 log10”. Moreover, the “reduction in CFU counts compared with untreated control” value is listed as ~0.5 log10 in data set [3] (0.1 μg/ml, day 2 after anaerobiosis); ~1.1 log10 in data set [3] (0.1 μg/ml, day 5 after anaerobiosis); ~2.3 log10 in data set [3] (1 μg/ml, day 2 after anaerobiosis); ~4.7 log10 in data set [3] (1 μg/ml, day 5 after anaerobiosis); “approximately 4 log10” in data set [3] (10 μg/ml, day 2 after anaerobiosis); “about 6 log10” in data set [3] (10 μg/ml, day 5 after anaerobiosis). Besides, the “reduction of the dormant bacteria” value in data set [1] (1 μg/ml) stood at 1.41 log10.
`COc1nc2ccc(Br)cc2cc1C(c1ccccc1)C(O)(CCN(C)C)c1ccccc1` (stereo not drawn): the melting point – broadly, the temperature, or range, at which the solid turns liquid – stood at 84 °C.
As to `COc1nc2ccc(Br)cc2cc1C(c1ccc(C)cc1)C(O)(CCN(C)C)c1cccc2ccccc12` (stereo not drawn) [Compound 71], the figures for the “reduction of the dormant bacteria” value in data set [1] (1 μg/ml) and in data set [1] (10 μg/ml) were 1.55 log10 and “more than 2 log10”, respectively.
